Measurements: US20230257372A1 (CHONG KUN DANG PHARMACEUTICAL CORP., priority 2020, published 2023)
Read-outs that look alike come from different tables or passages of the source.

Tests used:
[1] = target: T1, human recombinant HDAC1 (Homo sapiens, UniProt Q13547); assay: HDAC1 enzyme activity inhibition (HDAC Fluorimetric Drug Discovery Kit); format: biochemical; settings: read-out: HDAC1
T1 construct: purchased Enzo Life Science, Inc. BML-SE456
In short: (§1)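 Fluorimetric deacetylase read-out: after 30 min with Developer II following a 60 min, 30° C reaction of recombinant enzyme ([…]) with 10 μM substrate, across five-fold serial compound dilutions.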

[2] = target: T2, human recombinant HDAC6 (Homo sapiens, UniProt Q9UBN7); assay: HDAC6 enzyme activity inhibition (HDAC Fluorimetric Drug Discovery Kit); format: biochemical
T2 construct: purchased Calbiochem Inc. 382180
T2 sequence (Q9UBN7 1-1215): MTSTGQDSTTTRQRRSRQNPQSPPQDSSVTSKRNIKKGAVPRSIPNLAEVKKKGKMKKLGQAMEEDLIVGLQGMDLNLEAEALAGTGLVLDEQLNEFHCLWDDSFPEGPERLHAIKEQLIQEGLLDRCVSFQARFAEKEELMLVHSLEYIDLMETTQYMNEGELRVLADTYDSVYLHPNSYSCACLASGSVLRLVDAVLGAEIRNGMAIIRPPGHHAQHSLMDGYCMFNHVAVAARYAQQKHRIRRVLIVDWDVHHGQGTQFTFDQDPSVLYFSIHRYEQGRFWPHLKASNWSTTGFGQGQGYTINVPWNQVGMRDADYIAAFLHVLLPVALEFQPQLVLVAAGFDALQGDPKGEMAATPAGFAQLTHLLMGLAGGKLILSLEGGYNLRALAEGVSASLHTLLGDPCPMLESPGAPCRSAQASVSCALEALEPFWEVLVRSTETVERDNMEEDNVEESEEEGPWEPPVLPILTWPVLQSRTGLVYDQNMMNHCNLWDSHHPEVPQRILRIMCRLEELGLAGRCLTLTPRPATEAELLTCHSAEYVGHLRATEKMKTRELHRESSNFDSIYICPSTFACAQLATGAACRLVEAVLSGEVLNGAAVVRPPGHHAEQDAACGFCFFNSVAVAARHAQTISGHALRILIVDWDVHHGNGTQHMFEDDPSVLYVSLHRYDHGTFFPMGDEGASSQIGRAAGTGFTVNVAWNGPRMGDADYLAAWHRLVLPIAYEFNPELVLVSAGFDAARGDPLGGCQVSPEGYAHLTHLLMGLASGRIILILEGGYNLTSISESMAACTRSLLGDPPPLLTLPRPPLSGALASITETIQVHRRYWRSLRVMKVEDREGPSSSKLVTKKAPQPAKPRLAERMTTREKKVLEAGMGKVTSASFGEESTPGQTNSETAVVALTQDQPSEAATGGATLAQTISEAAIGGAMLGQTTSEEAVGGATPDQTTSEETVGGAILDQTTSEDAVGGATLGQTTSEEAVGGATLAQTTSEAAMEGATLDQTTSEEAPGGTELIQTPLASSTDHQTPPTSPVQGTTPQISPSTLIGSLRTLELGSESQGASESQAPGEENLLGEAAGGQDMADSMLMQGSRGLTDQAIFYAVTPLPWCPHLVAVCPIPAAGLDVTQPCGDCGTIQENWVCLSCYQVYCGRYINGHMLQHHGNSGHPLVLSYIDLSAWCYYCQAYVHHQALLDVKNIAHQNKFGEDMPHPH
In short: as §1

[3] = human recombinant HDAC1, IC50 calculated with GraphPad Prism
[4] = human recombinant HDAC6, IC50 calculated with GraphPad Prism
[5] = human recombinant HDAC1, Fluor de Lys substrate, 30° C. 60 minutes
[6] = human recombinant HDAC6, same protocol as HDAC1

T1 sequence (Q13547 whole entry): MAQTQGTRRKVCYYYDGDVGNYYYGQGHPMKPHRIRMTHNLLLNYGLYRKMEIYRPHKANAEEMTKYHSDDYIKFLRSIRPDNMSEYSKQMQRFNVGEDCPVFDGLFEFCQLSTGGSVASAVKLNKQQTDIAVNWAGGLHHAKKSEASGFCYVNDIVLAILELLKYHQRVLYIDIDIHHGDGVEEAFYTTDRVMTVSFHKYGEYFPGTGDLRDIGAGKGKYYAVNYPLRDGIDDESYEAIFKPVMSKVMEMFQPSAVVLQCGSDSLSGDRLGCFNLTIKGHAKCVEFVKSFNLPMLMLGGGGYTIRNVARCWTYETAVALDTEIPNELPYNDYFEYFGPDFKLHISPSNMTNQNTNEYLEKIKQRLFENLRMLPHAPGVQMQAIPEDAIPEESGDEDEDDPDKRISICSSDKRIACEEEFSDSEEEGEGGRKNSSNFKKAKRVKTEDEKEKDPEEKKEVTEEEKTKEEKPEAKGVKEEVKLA

Structure (SMILES) | IC50 [1, 3] | HDAC6 selectivity (fold) ([2]; HDAC1 IC50 / HDAC6 IC50) | IC50 [2, 4] | IC50 [1, 5] | HDAC6 selectivity (fold) ([2]; HDAC6 over HDAC1) | IC50 [2, 6]
CNCc1cccc(-c2cn(Cc3ccc(-c4nnc(C(F)F)o4)cn3)nn2)c1 [Compound 3919, 1-(3-(1-((5-(5-(difluoromethyl)-1,3,4-oxadiazol-2-yl)pyridin-2-yl)methyl)-1H-1,2,3-triazol-4-yl)phenyl)-N-methylmethanamine] | > 50000 nM | 1358 fold | 36.8 nM |  |  | 
Fc1cc(-c2nnc(C(F)F)o2)ccc1Cn1cc(-c2ccnc(N3CCN(C4CCC4)CC3)c2)nn1 [Compound 4640, 2-(4-((4-(2-(4-cyclobutylpiperazin-1-yl)pyridin-4-yl)-1H-1,2,3-triazol-1-yl)methyl)-3-fluorophenyl)-5-(difluoromethyl)-1,3,4-oxadiazole] |  |  |  | > 50000 nM | 807 fold | 61.9 nM
CCCN1CCC(Nc2cccc(-c3cn(Cc4ccc(-c5nnc(C(F)F)o5)cc4F)nn3)c2F)CC1 [Compound 4434, N-(3-(1-(4-(5-(difluoromethyl)-1,3,4-oxadiazol-2-yl)-2-fluorobenzyl)-1H-1,2,3-triazol-4-yl)-2-fluorophenyl)-1-propylpiperidin-4-amine] | > 50000 nM | 2392 fold | 20.9 nM |  |  | 
CC(C)N1CCC(F)(c2cn(Cc3ccc(-c4nnc(C(F)F)o4)cn3)nn2)CC1 [Compound 4007, 2-(difluoromethyl)-5-(6-((4-(4-fluoro-1-isopropylpiperidin-4-yl)-1H-1,2,3-triazol-1-yl)methyl)pyridin-3-yl)-1,3,4-oxadiazole] | > 50000 nM | 2873 fold | 17.4 nM |  |  | 
FC(F)c1nnc(-c2ccc(Cn3cc(-c4cccc(N5CCOCC5)c4)nn3)cc2)o1 [Compound 4338, 4-(3-(1-(4-(5-(difluoromethyl)-1,3,4-oxadiazol-2-yl)benzyl)-1H-1,2,3-triazol-4-yl)phenyl)morpholine] | > 50000 nM | 765 fold | 65.3 nM |  |  | 
Fc1cc(-c2nnc(C(F)F)o2)ccc1Cn1cc(-c2ccc(CNC3COC3)cc2)nn1 [Compound 4469, N-(4-(1-(4-(5-(difluoromethyl)-1,3,4-oxadiazol-2-yl)-2-fluorobenzyl)-1H-1,2,3-triazol-4-yl)benzyl)oxetan-3-amine] | > 50000 nM | 847 fold | 59 nM |  |  | 
CC(C)N1CCN(C(=O)c2cccc(-c3cn(Cc4ccc(-c5nnc(C(F)F)o5)cn4)nn3)c2)CC1 [Compound 4448, (3-(1-((5-(5-(difluoromethyl)-1,3,4-oxadiazol-2-yl)pyridin-2-yl)methyl)-1H-1,2,3-triazol-4-yl)phenyl)(4-isopropylpiperazin-1-yl)methanone] | > 50000 nM | 2873 fold | 17.4 nM |  |  | 
Fc1cc(-c2nnc(C(F)F)o2)ccc1Cn1cc(-c2ccc(CN3CC[C@H](F)C3)s2)nn1 [Compound 17916] |  |  |  | > 50000 nM | 556 fold | 89.8 nM
Fc1cc(-c2nnc(C(F)F)o2)ccc1Cn1cc(-c2ccc(CN3CCC3)s2)nn1 [Compound 17912, 2-(4-((4-(5-(azetidin-1-ylmethyl)thiophen-2-yl)-1H-1,2,3-triazol-1-yl)methyl)-3-fluorophenyl)-5-(difluoromethyl)-1,3,4-oxadiazole] |  |  |  | > 50000 nM | 1237 fold | 40.4 nM
Fc1cc(-c2nnc(C(F)F)o2)ccc1Cn1cc(-c2cccc(Br)n2)nn1 [Compound 17263, 2-(4-((4-(6-bromopyridin-2-yl)-1H-1,2,3-triazol-1-yl)methyl)-3-fluorophenyl)-5-(difluoromethyl)-1,3,4-oxadiazole] |  |  |  | > 50000 nM | 1126 fold | 44.4 nM
CC(C)(C)OC(=O)N1CCC(F)(c2cn(Cc3ccc(-c4nnc(C(F)F)o4)cn3)nn2)CC1 [Compound 3999, Tert-butyl 4-(1-((5-(5-(difluoromethyl)-1,3,4-oxadiazol-2-yl)pyridin-2-yl)methyl)-1H-1,2,3-triazol-4-yl)-4-fluoropiperidin-1-carboxylate] | > 50000 nM | 575 fold | 86.9 nM |  |  | 
FC(F)c1nnc(-c2ccc(Cn3cc(-c4ccc5c(c4)CCN(C4CCC4)C5)nn3)nc2)o1 [Compound 4054, 2-(6-((4-(2-cyclobutyl-1,2,3,4-tetrahydroisoquinolin-6-yl)-1H-1,2,3-triazol-1-yl)methyl)pyridin-3-yl)-5-(difluoromethyl)-1,3,4-oxadiazole] | > 50000 nM | 1094 fold | 45.7 nM |  |  | 
CC(C)N1CC(c2cccc(-c3cn(Cc4ccc(-c5nnc(C(F)F)o5)cc4)nn3)c2)C1 [Compound 4509, 2-(difluoromethyl)-5-(4-((4-(3-(1-isopropylazetidin-3-yl)phenyl)-1H-1,2,3-triazol-1-yl)methyl)phenyl)-1,3,4-oxadiazole] |  |  |  | > 50000 nM | 2392 fold | 20.9 nM
Fc1cc(-c2nnc(C(F)F)o2)ccc1Cn1cc(-c2csc(CN3CCC3)c2)nn1 [Compound 18178, 2-(4-((4-(5-(azetidin-1-ylmethyl)thiophen-3-yl)-1H-1,2,3-triazol-1-yl)methyl)-3-fluorophenyl)-5-(difluoromethyl)-1,3,4-oxadiazole] |  |  |  | > 50000 nM | 657 fold | 76.1 nM
CC(C)(N)C(=O)Nc1cccc(-c2cn(Cc3ccc(-c4nnc(C(F)F)o4)cn3)nn2)c1 [Compound 4497, 2-amino-N-(3-(1-((5-(5-(difluoromethyl)-1,3,4-oxadiazol-2-yl)pyridin-2-yl)methyl)-1H-1,2,3-triazol-4-yl)phenyl)-2-methylpropanamide] | > 50000 nM | 3759 fold | 13.3 nM |  |  | 
Cc1cc2ccc(-c3cn(Cc4ccc(-c5nnc(C(F)F)o5)cc4)nn3)cc2[nH]1 [Compound 4288] | > 50000 nM | 486 fold | 103 nM |  |  | 
CC(C)(C)OC(=O)Nc1cccc(-c2cn(Cc3ccc(-c4nnc(C(F)F)o4)cc3F)nn2)c1 [Compound 3697, Tert-butyl (3-(1-(4-(5-(difluoromethyl)-1,3,4-oxadiazol-2-yl)-2-fluorobenzyl)-1H-1,2,3-triazol-4-yl)phenyl)carbamate] | > 50000 nM | 1101 fold | 45.4 nM |  |  | 
CN1CCN(Cc2ccc(-c3cn(Cc4ccc(-c5nnc(C(F)F)o5)cn4)nn3)cc2)CC1 [Compound 4562, 2-(difluoromethyl)-5-(6-((4-(4-((4-methylpiperazin-1-yl)methyl)phenyl)-1H-1,2,3-triazol-1-yl)methyl)pyridin-3-yl)-1,3,4-oxadiazole] |  |  |  | > 50000 nM | 2083 fold | 24 nM
CC(C)(C)OC(=O)N1CCC(c2cn(Cc3ccc(-c4nnc(C(F)F)o4)cc3F)nn2)CC1 [Compound 3735, Tert-butyl 4-(1-(4-(5-(difluoromethyl)-1,3,4-oxadiazol-2-yl)-2-fluorobenzyl)-1H-1,2,3-triazol-4-yl)piperidin-1-carboxylate] | > 50000 nM | 320 fold | 156 nM |  |  | 
FC1CN(Cc2cccc(-c3cn(Cc4ccc(-c5nnc(C(F)F)o5)cc4)nn3)c2)C1 [Compound 4410, 2-(difluoromethyl)-5-(4-((4-(3-((3-fluoroazetidin-1-yl)methyl)phenyl)-1H-1,2,3-triazol-1-yl)methyl)phenyl)-1,3,4-oxadiazole] | > 50000 nM | 781 fold | 64 nM |  |  | 
CCCN1CCC(Nc2ccc(F)c(-c3cn(Cc4ccc(-c5nnc(C(F)F)o5)cc4F)nn3)c2)CC1 [Compound 4438, N-(3-(1-(4-(5-(difluoromethyl)-1,3,4-oxadiazol-2-yl)-2-fluorobenzyl)-1H-1,2,3-triazol-4-yl)-4-fluorophenyl)-1-propylpiperidin-4-amine] | > 50000 nM | 934 fold | 53.5 nM |  |  | 
